In US8183237B2, “Benzenesulfonanilide compounds suitable for treating disorders that respond to modulation of the serotonin 5-HT6 receptor” (Abbott Laboratories, priority 2009, dated 2012) one finds Ki and Kd data, which are given here for 6 compounds.

Test [1] addresses T1, h-5-HT6 receptor (Homo sapiens, UniProt P50406).
T1 construct: expressed in transfected cells; host or cells: HEK293
Description: 5-HT6 receptor binding assay (displacement of [3H]-LSD). As to the method: Displacement of radioligands binding to the following cloned human receptors
(§1) 1. Preparation of Membranes by Ultrasonic Treatment and Differential Centrifugation
Cells from stable clonal cell lines expressing the corresponding receptor (5-HT6, α1-adrenergic, dopamine D2 or histamine H1 receptors) were washed with PBS (w/o Ca^++, Mg^++) and harvested in PBS with 0.02% EDTA. The cells were collected by centrifugation at 500 g for 10 min. at 4° C., washed with PBS and centrifuged (500 g, 10 min. 4° C.). The pellets were stored at −80° C. until use. For membrane preparation, the thawed cell pellet was resuspended in ice-cold sucrose buffer (0.25 M sucrose, 10 mM Hepes (pH 7.4), 1 mM Phenylmethylsulfonyl fluoride (PMSF) in DMSO, 5 μg/ml Pepstatin-A, 3 mM EDTA, 0.025% Bacitracin) and homogenized with a Branson Sonifier W-250 (Settings: Timer 4; Output Control 3; Duty Cycle constant; 2 to 3 cycles). Cell disruption was checked with the aid of a microscope. Remaining unbroken cells were pelleted at 1.000 g for 10 min. at 4° C. The sucrose buffer supernatant was then centrifuged at 60.000 g for 1 h at 4° C. (Beckman Ultrazentrifuge XL 80). The pellet was resuspended in 30 ml ice-cold Tris buffer (20 mM TRIS (pH 7.4), 5 μg/ml Pepstatin A, 0.1 mM PMSF, 3 mM EDTA) by pipetting through a 10 ml serological pipet and centrifuged for 1 h at 4° C. at 60.000 g. A final resuspension was performed in a small volume of ice-cold Tris buffer (see above) by pressing through a serological pipet followed by ultrasonic treatment with a Branson Sonifier W-250 (Settings: Timer 1; Output Control 3; Duty Cycle constant; 1 cycle). Protein concentration was determined (BCA-Kit; Pierce) and aliquots stored at −80° C. or in liquid nitrogen for long-term storage.
(§2) 2. Receptor Binding Experiments
All receptor binding experiments were carried out in the corresponding assay buffer in a total volume of 200 μl in the presence of various concentrations of test compound (10^−5 M to 10^−9 M, tenfold serial dilution, duplicate determinations). The assays were terminated by filtration on polyethylenimine (PEI 0.1% or 0.3%) presoaked Packard Unifilter Plates (GF/C or GF/B) with a Tomtec MachIII U 96 well-plate harvester. After the plates had been dried for 2 h at 55° C. in a drying chamber scintillation cocktail (BetaPlate Scint; PerkinElmer) was added. Radioactivity was measured in a Microbeta Trilux two hours after the addition of the scintillation mixture. Data derived from liquid scintillation counting were analysed by iterative non-linear regression analysis with the use of the Statistical Analysis System (SAS): a program similar to “LIGAND” as described by Munson and Rodbard (Analytical Biochemistry 107, 220-239 (1980).
a) 5-HT6 Receptor Binding Assay
HEK293 cells stably expressing the h-5-HT6 receptor (NCBI Reference Sequence XM 001435) were cultured in RPMI1640 medium supplemented with 25 mM HEPES, 10% fetal calf serum and 1-2 mM glutamine. The membrane preparation was performed as described in section 1. […] Non-specific binding was defined with 1 μM methiothepin. The binding reaction was carried out for 3.5 h at room temperature. […]
Data derived from liquid scintillation counting were analyzed by iterative non-linear regression analysis with the use of the Statistical Analysis System (SAS): a program similar to “LIGAND” as described by Munson and Rodbard (Anal. Biochem. 1980, 107, 220-239). […] IC50, nH and Ki values were expressed as geometrical mean.

Test [2] has as its target T2, dopamine D2 receptor (Homo sapiens, UniProt P14416).
T2 construct: expressed in transfected cells; host or cells: HEK293
The test is described as follows: Dopamine D2 receptor binding assay (displacement of [125I]-iodospiperone). Particulars: saturation binding experiments, HEK293 D2 membranes. As for the experimental part: as §1
The pellets were stored at −80° C. until use. […] (Beckman Ultrazentrifuge XL 80).
as §2
b) Dopamine D2 Receptor Binding Assay
Non-specific binding was defined with 1 μM haloperidol.

Setting [3] is: membranes of HEK293 cells stably expressing h-5-HT6 receptor, 1 nM [3H]-LSD, read-out: Ki (5HT6).

Counter-ions that a name gives are not always drawn. Like-named read-outs stand apart in the source and are kept apart here.

T1 sequence (P50406 whole entry): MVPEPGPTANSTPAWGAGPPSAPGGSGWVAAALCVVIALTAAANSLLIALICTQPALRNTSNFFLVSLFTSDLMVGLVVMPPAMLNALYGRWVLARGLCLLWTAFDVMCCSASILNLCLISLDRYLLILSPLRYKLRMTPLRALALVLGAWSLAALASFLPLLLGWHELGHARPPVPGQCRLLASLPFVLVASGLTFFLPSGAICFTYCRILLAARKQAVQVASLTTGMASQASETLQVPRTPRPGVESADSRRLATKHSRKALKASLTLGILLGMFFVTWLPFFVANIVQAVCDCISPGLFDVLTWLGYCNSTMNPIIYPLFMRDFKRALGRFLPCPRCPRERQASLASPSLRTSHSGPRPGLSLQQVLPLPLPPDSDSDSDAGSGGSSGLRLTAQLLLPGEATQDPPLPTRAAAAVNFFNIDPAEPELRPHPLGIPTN
T2 sequence (P14416 whole entry): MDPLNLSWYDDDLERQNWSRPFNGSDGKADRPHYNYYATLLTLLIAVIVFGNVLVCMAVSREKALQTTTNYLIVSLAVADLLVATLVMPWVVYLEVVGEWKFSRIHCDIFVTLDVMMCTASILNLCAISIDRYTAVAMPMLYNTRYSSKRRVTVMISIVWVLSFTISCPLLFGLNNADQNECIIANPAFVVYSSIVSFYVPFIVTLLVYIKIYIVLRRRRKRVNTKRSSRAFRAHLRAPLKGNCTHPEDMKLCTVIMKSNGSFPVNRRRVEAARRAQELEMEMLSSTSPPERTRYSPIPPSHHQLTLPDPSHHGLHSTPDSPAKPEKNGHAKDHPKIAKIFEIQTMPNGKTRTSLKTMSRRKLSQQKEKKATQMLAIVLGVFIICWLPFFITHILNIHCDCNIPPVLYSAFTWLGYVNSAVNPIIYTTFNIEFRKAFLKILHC

As a reminder, the Ki is the dissociation constant of the complex between target and ligand, obtained from inhibition or displacement. In the case of `Cc1ccc(NS(=O)(=O)c2cccc(OC(F)F)c2)cc1N1CCNCC1` [Example 1, 3-Difluoromethoxy-N-(4-methyl-3-piperazin-1-yl-phenyl)-benzenesulfonamide hydrochloride], the Ki in test [1] was under 20 nM.

For the compound `Cc1ccc(NS(=O)(=O)c2ccccc2OC(F)F)cc1N1CCCNCC1` [Example 2, N-(3-[1,4]Diazepan-1-yl-4-methyl-phenyl)-2-difluoromethoxy-benzenesulfonamide hydrochloride], the Ki in test [1] (setting [3]) is under 50 nM.

Consider `Cc1ccc(N(C)S(=O)(=O)c2cccc(OC(F)F)c2)cc1N1CCCNCC1` [Example 3, N-(3-[1,4]Diazepan-1-yl-4-methyl-phenyl)-3-difluoromethoxy-N-methyl-benzenesulfonamide hydrochloride], for which the Ki in test [1] (setting [3]) is under 250 nM.

`Cc1ccc(NS(=O)(=O)c2cccc(OC(F)F)c2)cc1N1CCCNCC1` [Example 4, N-(3-[1,4]Diazepan-1-yl-4-methyl-phenyl)-3-difluoromethoxy-benzenesulfonamide hydrochloride]: the Ki in test [1] (setting [3]) was under 20 nM.

Consider `Cc1ccc(NS(=O)(=O)c2ccccc2OC(F)F)cc1N1CCCN(C)CC1` [Example 5, 2-Difluoromethoxy-N-[4-methyl-3-(4-methyl-[1,4]diazepan-1-yl)-phenyl]-benzenesulfonamide hydrochloride], for which the Ki in test [1] (setting [3]) is under 20 nM.

The Kd is the constant that tells how readily two partners part at equilibrium. On to iodospiperone [[^125I]-iodospiperone], for which binding in test [2] was characterised by a dissociation constant (Kd) of 0.22 nM.
